Columns and labels:
Experiment in all cases: In-water applied herbicidal activity in transplanted paddy rice
Format in all cases: in vivo
[1] = tested on: ORYSA = Oryza sativa ‘M202’ (rice)
Procedure: (§1) Weed seeds or nutlets of the desired test plant species were planted in puddled soil (mud) prepared by mixing a non-sterilized mineral soil (28 percent silt, 18 percent clay, and 54 percent sand, with a pH of about 7.3 to 7.8 and an organic matter content of about 1.0 percent) and water at a ratio of 100 kilograms (kg) of soil to 19 liters (L) of water. The prepared mud was dispensed in 250 mL aliquots into 480 mL non-perforated plastic pots with a surface area of 86.59 cm^2 leaving a headspace of 2.5 to 3 cm in each pot. Rice seeds were planted in Sun Gro MetroMix 306 planting mixture, which typically has a pH of 6.0 to 6.8 and an organic matter content of about 30 percent, in plastic plug trays. Seedlings at the second or third leaf stage of growth were transplanted into 650 mL of mud contained in 960 mL non-perforated plastic pots with a surface area of 86.59 cm^2 four days prior to herbicide application. The paddy was created by filling the 2.5 to 3 cm headspace of the pots with water. When required to ensure good germination and healthy plants, a fungicide treatment and/or other chemical or physical treatment was applied. The plants were grown for 4-14 d in a greenhouse with an approximate 14-h photoperiod which was maintained at about 29° C. during the day and 26° C. during the night. Nutrients were added as Osmocote (17:6:10, Nitrogen:Phosphorus:Potassium (N:P:K)+minor nutrients) at 2 grams (g) per cup. Water was added on a regular basis to maintain the paddy flood, and supplemental lighting was provided with overhead metal halide 1000-Watt lamps as necessary. The plants were employed for testing when they reached the second or third true leaf stage. Treatments consisted of compounds 45, 34, and 66. For technical grade compounds, a weighed amount, determined by the highest rate to be tested, was placed in an individual 120 mL glass vial and was dissolved in 20 mL of acetone to obtain concentrated stock solutions. […] The concentrated stock solutions obtained were diluted with 20 mL of an aqueous mixture containing 2.5% Agri-dex crop oil concentrate (v/v). Applications were made by injecting an appropriate amount of the stock solution into the aqueous layer of the paddy. Control plants were treated in the same manner with the solvent blank. All treated plant material received the same concentration of acetone and crop oil concentrate. The treated plants and control plants were placed in a greenhouse as described above and water was added as needed to maintain a paddy flood. After approximately 3 weeks, the condition of the test plants, compared with that of the untreated plants, was determined visually and scored on a scale of 0 to 100 percent where 0 corresponds to no injury and 100 corresponds to complete kill. By applying the well-accepted probit analysis as described by J. Berkson in Journal of the […], 48, 565 (1953) and by D. Finney in “Probit Analysis” Cambridge University Press (1952) or by plotting the mean data and fitting a logarithmic curve to the portion of the data where there was a dose response using Microsoft Excel®, the above data can be used to calculate GR50 and GR90 values, which are defined as growth reduction factors that correspond to the effective dose of herbicide required to kill or control 50 percent or 90 percent, respectively, of a target plant.

[2] = tested on: MOOVA = Monochoria vaginalis (BURM.f.) C.PRESL ex KUNTH (monochoria)
Procedure: as §1

[3] = tested on: CYPDI = Cyperus difformis L. (small-flower flatsedge)
Procedure: as §1

[4] = tested on: SCPJU = Scirpus juncoides ROXB. (Japanese bulrush)
Procedure: as §1

[5] = tested on: ECHCG = Echinochloa crus-galli (L.) P.BEAUV. (barnyardgrass)
Procedure: as §1

[6] = tested on: ORYSA = Oryza sativa ‘Wells’ (rice)
Procedure: as §1

[7] = Table 7, dose to kill or control 50 percent, 21 days after application
[8] = Table 7, dose to kill or control 90 percent, 21 days after application

Compound: COc1c(C(=O)OCc2ccccc2)nc(-c2ccc(Cl)c(OC)c2F)c(F)c1N [Compound 66, benzyl 4-amino-6-(4-chloro-2-fluoro-3-methoxyphenyl)-5-fluoro-3-methoxypicolinate]
- Mean Visual Injury (%)-21 Days After Application ORYSA ‘M202’ ([1]; Table 7, 2.19 g ae/ha): 0%
- Mean Visual Injury (%)-21 Days After Application ORYSA ‘M202’ ([1]; Table 7, 4.38 g ae/ha): 0%
- Mean Visual Injury (%)-21 Days After Application ORYSA ‘M202’ ([1]; Table 7, 8.75 g ae/ha): 0%
- Mean Visual Injury (%)-21 Days After Application ORYSA ‘M202’ ([1]; Table 7, 17.5 g ae/ha): 0%
- Mean Visual Injury (%)-21 Days After Application ORYSA ‘M202’ ([1]; Table 7, 35 g ae/ha): 0%
- Mean Visual Injury (%)-21 Days After Application ORYSA ‘M202’ ([1]; Table 7, 70 g ae/ha): 0%
- Mean Visual Injury (%)-21 Days After Application ORYSA ‘M202’ ([1]; Table 7, 140 g ae/ha): 17%
- GR50 ORYSA ‘M202’ [1, 7]: >140 g ae/ha
- GR90 ORYSA ‘M202’ [1, 8]: >140 g ae/ha
- Mean Visual Injury (%)-21 Days After Application MOOVA ([2]; Table 7, 2.19 g ae/ha): 0%
- Mean Visual Injury (%)-21 Days After Application MOOVA ([2]; Table 7, 4.38 g ae/ha): 100%
- Mean Visual Injury (%)-21 Days After Application MOOVA ([2]; Table 7, 8.75 g ae/ha): 100%
- Mean Visual Injury (%)-21 Days After Application MOOVA ([2]; Table 7, 17.5 g ae/ha): 100%
- Mean Visual Injury (%)-21 Days After Application MOOVA ([2]; Table 7, 35 g ae/ha): 100%
- Mean Visual Injury (%)-21 Days After Application MOOVA ([2]; Table 7, 70 g ae/ha): 100%
- Mean Visual Injury (%)-21 Days After Application MOOVA ([2]; Table 7, 140 g ae/ha): 100%
- GR50 MOOVA [2, 7]: <4.38 g ae/ha
- GR90 MOOVA [2, 8]: <4.38 g ae/ha
- Mean Visual Injury (%)-21 Days After Application CYPDI ([3]; Table 7, 2.19 g ae/ha): 0%
- Mean Visual Injury (%)-21 Days After Application CYPDI ([3]; Table 7, 4.38 g ae/ha): 48%
- Mean Visual Injury (%)-21 Days After Application CYPDI ([3]; Table 7, 8.75 g ae/ha): 94%
- Mean Visual Injury (%)-21 Days After Application CYPDI ([3]; Table 7, 17.5 g ae/ha): 100%
- Mean Visual Injury (%)-21 Days After Application CYPDI ([3]; Table 7, 35 g ae/ha): 100%
- Mean Visual Injury (%)-21 Days After Application CYPDI ([3]; Table 7, 70 g ae/ha): 100%
- Mean Visual Injury (%)-21 Days After Application CYPDI ([3]; Table 7, 140 g ae/ha): 100%
- GR50 CYPDI [3, 7]: 4.5 g ae/ha
- GR90 CYPDI [3, 8]: 8.2 g ae/ha
- Mean Visual Injury (%)-21 Days After Application SCPJU ([4]; Table 7, 2.19 g ae/ha): 35%
- Mean Visual Injury (%)-21 Days After Application SCPJU ([4]; Table 7, 4.38 g ae/ha): 78%
- Mean Visual Injury (%)-21 Days After Application SCPJU ([4]; Table 7, 8.75 g ae/ha): 94%
- Mean Visual Injury (%)-21 Days After Application SCPJU ([4]; Table 7, 17.5 g ae/ha): 98%
- Mean Visual Injury (%)-21 Days After Application SCPJU ([4]; Table 7, 35 g ae/ha): 100%
- Mean Visual Injury (%)-21 Days After Application SCPJU ([4]; Table 7, 70 g ae/ha): 100%
- Mean Visual Injury (%)-21 Days After Application SCPJU ([4]; Table 7, 140 g ae/ha): 100%
- GR50 SCPJU [4, 7]: 2.8 g ae/ha
- GR90 SCPJU [4, 8]: 7.1 g ae/ha
- Mean Visual Injury (%)-21 Days After Application ECHCG ([5]; Table 7, 2.19 g ae/ha): 0%
- Mean Visual Injury (%)-21 Days After Application ECHCG ([5]; Table 7, 4.38 g ae/ha): 3%
- Mean Visual Injury (%)-21 Days After Application ECHCG ([5]; Table 7, 8.75 g ae/ha): 6%
- Mean Visual Injury (%)-21 Days After Application ECHCG ([5]; Table 7, 17.5 g ae/ha): 57%
- Mean Visual Injury (%)-21 Days After Application ECHCG ([5]; Table 7, 35 g ae/ha): 86%
- Mean Visual Injury (%)-21 Days After Application ECHCG ([5]; Table 7, 70 g ae/ha): 99%
- Mean Visual Injury (%)-21 Days After Application ECHCG ([5]; Table 7, 140 g ae/ha): 100%
- GR50 ECHCG [5, 7]: 17.4 g ae/ha
- GR90 ECHCG [5, 8]: 53.7 g ae/ha
- Mean Visual Injury (%)-21 Days After Application ORYSA ‘Wells’ ([6]; Table 7, 8.75 g ae/ha): 0%
- Mean Visual Injury (%)-21 Days After Application ORYSA ‘Wells’ ([6]; Table 7, 17.5 g ae/ha): 0%
- Mean Visual Injury (%)-21 Days After Application ORYSA ‘Wells’ ([6]; Table 7, 35 g ae/ha): 0%
- Mean Visual Injury (%)-21 Days After Application ORYSA ‘Wells’ ([6]; Table 7, 70 g ae/ha): 0%
- Mean Visual Injury (%)-21 Days After Application ORYSA ‘Wells’ ([6]; Table 7, 140 g ae/ha): 5%
- GR50 ORYSA ‘Wells’ [6, 7]: >140 g ae/ha
- GR90 ORYSA ‘Wells’ [6, 8]: >140 g ae/ha

Reference: patent US9518018B2, “3-alkoxy, thioalkyl and amino-4-amino-6-(substituted)picolinates and their use as herbicides” (Dow AgroSciences LLC, priority 2011, dated 2016)
